Results: ChEMBL document CHEMBL4616634, “4β-Hydroxywithanolide E from Goldenberry (Whole Fruits of Physalis peruviana L.) as a Promising Agent against Chronic Obstructive Pulmonary Disease” (J Nat Prod, 2020)
The source made the active and inactive calls. The rule behind the calls is not given here.

Experiments:
RAW264.7 [1] = assay: Inhibition of LPS-induced iNOS protein expression in mouse RAW264.7 cells at 0.5 to 4 uM preincubated for 1 hr followed by LPS-stimulation and measured after 16 hrs by immunoblot analysis; type: functional, cell-based
[2] = molecular target: T1, Nuclear factor erythroid 2-related factor 2 (Mus musculus) (UniProt Q60795); assay: Activation of Nrf2 in mouse Hepa1c1c7 cells assessed as increase in quinone reductase activity incubated for 24 hrs by MTT based assay; type: cell-based
T1 sequence (whole entry): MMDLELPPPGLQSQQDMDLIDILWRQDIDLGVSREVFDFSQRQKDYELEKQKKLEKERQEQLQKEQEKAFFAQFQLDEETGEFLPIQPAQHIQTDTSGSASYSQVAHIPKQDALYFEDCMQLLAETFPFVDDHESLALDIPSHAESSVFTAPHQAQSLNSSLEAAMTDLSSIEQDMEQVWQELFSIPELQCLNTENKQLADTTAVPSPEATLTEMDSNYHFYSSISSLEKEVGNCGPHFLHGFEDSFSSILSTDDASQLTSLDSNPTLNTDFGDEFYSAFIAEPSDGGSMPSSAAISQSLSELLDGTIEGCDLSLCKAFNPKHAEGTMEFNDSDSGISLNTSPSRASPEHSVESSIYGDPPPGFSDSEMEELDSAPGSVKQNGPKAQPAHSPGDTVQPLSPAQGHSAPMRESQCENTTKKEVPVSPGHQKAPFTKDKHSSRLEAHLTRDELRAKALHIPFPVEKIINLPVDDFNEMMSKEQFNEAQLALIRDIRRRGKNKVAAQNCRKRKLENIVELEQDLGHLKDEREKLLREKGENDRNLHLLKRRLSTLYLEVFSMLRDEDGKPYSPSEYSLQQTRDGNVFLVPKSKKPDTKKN

[3] = molecular target: T1, Nuclear factor erythroid 2-related factor 2 (Mus musculus); assay: Activation of Nrf2 in mouse Hepa1c1c7 cells assessed as increase in quinone reductase activity at 3.12 uM incubated for 24 hrs by MTT based assay; type: cell-based
[4] = molecular target: T2, Nuclear factor erythroid 2-related factor 2 (Homo sapiens) (UniProt Q16236); assay: Activation of Nrf2 in human MDA-MB-231 cells assessed as increase in ARE luciferase activity at 0.13 to 2 uM incubated for 16 hrs by luciferase reporter gene assay; type: cell-based
T2 sequence (whole entry): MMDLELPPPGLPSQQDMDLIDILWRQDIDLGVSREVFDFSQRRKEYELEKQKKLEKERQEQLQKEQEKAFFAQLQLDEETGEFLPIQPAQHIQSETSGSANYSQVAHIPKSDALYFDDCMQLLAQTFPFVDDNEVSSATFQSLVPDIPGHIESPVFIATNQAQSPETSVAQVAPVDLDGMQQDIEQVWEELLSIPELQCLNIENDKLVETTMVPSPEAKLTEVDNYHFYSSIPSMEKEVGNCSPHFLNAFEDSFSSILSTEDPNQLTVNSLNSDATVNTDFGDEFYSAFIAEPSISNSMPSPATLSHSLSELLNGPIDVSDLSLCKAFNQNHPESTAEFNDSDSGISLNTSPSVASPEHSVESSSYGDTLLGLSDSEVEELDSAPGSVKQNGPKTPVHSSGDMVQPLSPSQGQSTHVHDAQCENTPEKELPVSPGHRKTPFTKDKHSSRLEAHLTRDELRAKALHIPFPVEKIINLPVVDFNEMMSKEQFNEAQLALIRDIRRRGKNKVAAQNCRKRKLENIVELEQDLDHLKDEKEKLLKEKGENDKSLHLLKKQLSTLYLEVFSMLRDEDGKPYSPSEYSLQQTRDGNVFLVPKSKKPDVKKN

[5] = molecular target: T2, Nuclear factor erythroid 2-related factor 2 (Homo sapiens); assay: Activation of Nrf2 in human BEAS2B cells assessed as increase in Nrf2 protein level incubated for 12 hrs by immunoblot analysis; type: cell-based
[6] = molecular target: T2, Nuclear factor erythroid 2-related factor 2 (Homo sapiens); assay: Activation of Nrf2 in human BEAS2B cells assessed as increase in GCLM protein expression incubated for 12 hrs by immunoblot analysis; type: cell-based
[7] = molecular target: T2, Nuclear factor erythroid 2-related factor 2 (Homo sapiens); assay: Activation of Nrf2 in human BEAS2B cells assessed as increase in Nrf2 protein expression at 1 uM incubated for 8 hrs by immunoblot analysis; type: cell-based
[8] = molecular target: T2, Nuclear factor erythroid 2-related factor 2 (Homo sapiens); assay: Activation of Nrf2 in human BEAS2B cells assessed as increase in Keap1 mRNA expression at 0.5 to 2 uM incubated for 24 hrs by qRT-PCR analysis; type: cell-based
[9] = molecular target: T2, Nuclear factor erythroid 2-related factor 2 (Homo sapiens); assay: Activation of Nrf2 in human BEAS2B cells assessed as increase in Nrf2 protein expression at 5 uM incubated for 24 hrs by immunoblot analysis; type: cell-based
[10] = molecular target: T2, Nuclear factor erythroid 2-related factor 2 (Homo sapiens); assay: Activation of Nrf2 in human BEAS2B cells assessed as increase in Keap1 protein expression at 5 uM incubated for 24 hrs by immunoblot analysis; type: cell-based
BEAS-2B = assay: Antioxidant activity in human BEAS2B cells assessed as increase in GSH level at 2 uM incubated for 1 to 12 hrs; type: functional, cell-based
[11] = molecular target: Transcription factor p65 (Mus musculus) (UniProt Q04207); assay: Inhibition of LPS-induced NFkappaB p65 nucleus translocation in mouse RAW264.7 cells at 2 uM pre-incubated for 1 hr followed by LPS-stimulation and measured after 1 hr by immunoblot analysis; type: cell-based
Transcription factor p65 (Mus musculus), sequence (Q04207 whole entry): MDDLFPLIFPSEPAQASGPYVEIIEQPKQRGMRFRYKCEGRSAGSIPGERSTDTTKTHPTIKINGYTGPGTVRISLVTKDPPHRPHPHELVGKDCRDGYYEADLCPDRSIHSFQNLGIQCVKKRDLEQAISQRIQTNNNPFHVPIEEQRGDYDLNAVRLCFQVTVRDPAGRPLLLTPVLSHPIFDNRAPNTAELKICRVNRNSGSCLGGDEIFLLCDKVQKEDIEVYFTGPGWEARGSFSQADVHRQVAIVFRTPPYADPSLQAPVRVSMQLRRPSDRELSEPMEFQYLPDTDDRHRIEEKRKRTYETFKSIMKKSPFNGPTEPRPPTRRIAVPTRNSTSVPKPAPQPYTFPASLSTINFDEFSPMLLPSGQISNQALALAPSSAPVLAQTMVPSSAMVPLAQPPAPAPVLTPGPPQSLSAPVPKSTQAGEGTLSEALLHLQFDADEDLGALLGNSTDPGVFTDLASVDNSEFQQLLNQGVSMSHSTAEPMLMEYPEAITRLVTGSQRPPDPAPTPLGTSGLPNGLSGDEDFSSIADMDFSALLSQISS

RAW264.7 [12] = assay: Inhibition of LPS-induced NFkappaB activation in mouse RAW264.7 cells assessed as decrease in phosphorylated NFkappaB p65 at 0.5 to 4 uM pre-incubated for 1 hr followed by LPS-stimulation and measured after 2 hrs by immunoblot analysis; type: cell-based
RAW264.7 [13] = assay: Inhibition of LPS-induced NFkappaB activation in mouse RAW264.7 cells assessed as increase in IKBalpha protein expression at 0.5 to 4 uM pre-incubated for 1 hr followed by LPS-stimulation and measured after 2 hrs by immunoblot analysis; type: cell-based
RAW264.7 [14] = assay: Inhibition of LPS-induced IL-1beta protein expression in mouse RAW264.7 cells at 0.5 to 4 uM preincubated for 1 hr followed by LPS-stimulation and measured after 16 hrs by immunoblot analysis; type: functional, cell-based
RAW264.7 [15] = assay: Inhibition of LPS-induced IL-6 mRNA expression in mouse RAW264.7 cells at 0.5 to 4 uM preincubated for 1 hr followed by LPS-stimulation and measured after 6 hrs by qRT-PCR analysis; type: functional, cell-based
Mus musculus [16] = assay: Antiinflammatory activity in C57BL/6 mouse model of CS-induced pulmonary injury assessed as reduction in goblet cell hyperplasia in peribronchial in lungs at 2 to 4 mg/kg, ip for 5 days by hematoxylin and eosin staining based fluorescence microscopic analysis; type: functional, organism-based
Mus musculus [17] = assay: Antioxidant Activity in C57BL/6 mouse model of CS-induced pulmonary injury assessed as increase in SOD level in serum at 2 to 4 mg/kg, ip for 5 days; type: functional, organism-based
Mus musculus [18] = assay: Antiinflammatory activity in C57BL/6 mouse model of CS-induced pulmonary injury assessed as reduction in 8-oxo-dG in lungs at 2 to 4 mg/kg, ip for 5 days by ELISA; type: functional, organism-based
Mus musculus [19] = assay: Antiinflammatory activity in C57BL/6 mouse model of CS-induced pulmonary injury assessed as decrease in NFkappaB p65 protein expression in lungs at 2 to 4 mg/kg, ip for 5 days by immunoblot analysis; type: functional, organism-based

CC1=C(C)C(=O)O[C@H]([C@](C)(O)[C@]2(O)CC[C@@]3(O)[C@@H]4C[C@H]5O[C@]56[C@@H](O)C=CC(=O)[C@]6(C)[C@H]4CC[C@]23C)C1
inhibition (RAW264.7 [1]): Active
Activity [2]: Dose-dependent effect
fold change (FC) [3]: 2.58
Activity [4]: Active
Activity [5]: Dose-dependent effect
Activity [6]: Dose-dependent effect
Activity [7]: Active
Activity [8]: inactive
Activity [9]: Active
Activity [10]: inactive
Activity (BEAS-2B): Active
inhibition [11]: Active
inhibition (RAW264.7 [12]): Active
inhibition (RAW264.7 [13]): Active
inhibition (RAW264.7 [14]): Active
inhibition (RAW264.7 [15]): Active
Activity (Mus musculus [16]): Active
Activity (Mus musculus [17]): Active
Activity (Mus musculus [18]): Active
Activity (Mus musculus [19]): Active
